Read-outs that look alike come from different tables or passages of the source. Where a SMILES comes first, the peptide text is derived from it. Bridges are numbered along the chain shown (N, C = ends).

The test system of data set [1] is E. coli ATCC 10536. The data set can be described thus: Plate assay screening of variants expressed in S. cerevisiae, overlaid with target organism in presence of horse blood or serum. Type of data set: cell-based, Escherichia coli. The note with it: 2.5% blood, 5% blood or 5% serum. From the text: Several strategies were used for variant generation of the polynucleotide of SEQ ID NO:1. The resulting libraries were cloned and expressed in S. cerevisiae. Transformed clones were screened on a plate assay containing growth media supplemented with 1.5% galactose and 0.5% glucose and either horse blood (2.5-5%) or serum (5%), overlayed with the target organism, E. coli ATCC 10536 (See Raventos et al., 2005, Comb Chem High Throughput Screen. 8:219-33).
Approximately, 300 Saccharomyces cerevisiae colonies expressing arenicin variants were spread on screening plates containing either horse blood (2.5% or 5%) or 5% horse serum (see composition of the plates below). Plates were incubated 3 hours at 30° C. to allow them to dry. Next, 25 ml overlay temperate at 42° C. was added to the plates. After the media had solidified, the plates were incubated 3 days at 30° C.
On day 4, plates were overlayed with pre-warmed media at 42° C. containing either 2.5% or 5% horse blood or 5% horse serum and the target bacteria, E. coli ATCC 10536 (see below for details on media composition). After the overlay solidified, plates were incubated 16 hours at 37° C. Next day, plates were colored by adding 10 ml of 1.5 mM MTT to the plates and incubated at room temperature for 30 minutes. Clones giving rise to clearing zones were picked and sequenced. […]

Data set [2] can be described thus: Determination of the protein binding (90% serum, 30 kDa filter, HPLC). Format: in vitro ADME. The method, then: Protein binding assays were performed as follows. The purified peptides were mixed with 90% serum and centrifuged through a 30 kDa filter. The ultra-filtrate and the non filtrated serum samples were quantified by HPLC measurements and the protein binding was subsequently calculated.

`CC(C)[C@@H]1NC(=O)CNC(=O)[C@H](CC(N)=O)NC(=O)[C@H](CCCNC(=N)N)NC(=O)[C@H](Cc2ccc(O)cc2)NC(=O)[C@H](C(C)C)NC(=O)[C@@H]2CSSC[C@H](NC(=O)[C@H](C(C)C)NC(=O)[C@H](CCCNC(=N)N)NC1=O)C(=O)N[C@@H](Cc1ccc(O)cc1)C(=O)N[C@@H](CCCNC(=N)N)C(=O)N[C@@H](CCCNC(=N)N)C(=O)N[C@H](C(=O)N[C@@H](CC(N)=O)C(=O)O)CSSC[C@H](NC(=O)[C@H](Cc1ccccc1)NC(=O)CN)C(=O)N[C@@H](Cc1c[nH]c3ccccc13)C(=O)N[C@@H](Cc1ccc(O)cc1)C(=O)N[C@@H](C(C)C)C(=O)N2` [SEQ ID NO: 2, reference compound] (H-GFCWYVCVYRNGVRVCYRRCN-OH; disulfide 3-20, 7-16): the “antimicrobial activity in plate assay (clearing zones)” value in data set [1] was “fully inhibited”. In addition, the fraction unbound in data set [2] (purified peptide mixed with 90% serum, 30 kDa filter, HPLC, read-out: Protein binding (%) (converted)) is 0.005.
`CC(C)[C@@H]1NC(=O)CNC(=O)[C@H](CC(N)=O)NC(=O)[C@H](CCCNC(=N)N)NC(=O)[C@H](Cc2ccc(O)cc2)NC(=O)[C@H](C)NC(=O)[C@@H]2CSSC[C@H](NC(=O)[C@H](C)NC(=O)[C@H](CCCNC(=N)N)NC1=O)C(=O)N[C@@H](Cc1ccc(O)cc1)C(=O)N[C@@H](CCCNC(=N)N)C(=O)N[C@@H](CCCNC(=N)N)C(=O)N[C@H](C(=O)N[C@@H](CC(N)=O)C(=O)O)CSSC[C@H](NC(=O)[C@H](Cc1ccccc1)NC(=O)CN)C(=O)N[C@@H](Cc1c[nH]c3ccccc13)C(=O)N[C@@H](CCCNC(=N)N)C(=O)N[C@@H](C)C(=O)N2` [compound 418] (H-GFCWRACAYRNGVRACYRRCN-OH; disulfide 3-20, 7-16 (inferred); N-terminus and C-terminus assumed) gave a fraction unbound in data set [2] (serum) of 0.08.
On the same count and under the same terms, the figure for `CC(C)[C@@H]1NC(=O)CNC(=O)[C@H](CC(N)=O)NC(=O)[C@H](CCCNC(=N)N)NC(=O)[C@H](C)NC(=O)[C@H](C(C)C)NC(=O)[C@@H]2CSSC[C@H](NC(=O)[C@H](C(C)C)NC(=O)[C@H](CCCNC(=N)N)NC1=O)C(=O)N[C@@H](Cc1c[nH]cn1)C(=O)N[C@@H](CCCNC(=N)N)C(=O)N[C@@H](CCCNC(=N)N)C(=O)N[C@H](C(=O)N[C@@H](CC(N)=O)C(=O)O)CSSC[C@H](NC(=O)[C@H](Cc1ccccc1)NC(=O)CN)C(=O)N[C@@H](Cc1c[nH]c3ccccc13)C(=O)N[C@@H](CC(N)=O)C(=O)N[C@@H](C(C)C)C(=O)N2` [compound 299] (H-GFCWNVCVARNGVRVCHRRCN-OH; disulfide 3-20, 7-16 (inferred); N-terminus and C-terminus assumed) is 0.26.
